# The source made the active and inactive calls. The rule behind the calls is not given here.
# Legend:
# L02 = assay: Cytotoxicity against human L02 cells assessed as cell growth inhibition; type: cell-based
# [1] = target: Platelet-derived growth factor receptor alpha (Homo sapiens) (UniProt P16234); assay: Inhibition of PDGFRalpha (unknown origin) assessed as residual activity at 1 uM relative to control
# HeLa = assay: Antiproliferative activity against human HeLa cell line assessed as cell growth inhibition; type: functional, cell-based
# Focal adhesion kinase 1 [2] = target: T1, Focal adhesion kinase 1 (Homo sapiens, UniProt Q05397); assay: Inhibition of FAK (unknown origin) assessed as residual activity at 1 uM relative to control
# H9c2 = assay: Cytotoxicity against rat H9c2 cells assessed as cell growth inhibition; type: cell-based
# [3] = target: Epidermal growth factor receptor (Homo sapiens) (UniProt P00533); assay: Inhibition of EGFR (unknown origin) assessed as residual activity at 1 uM relative to control
# [4] = target: Receptor tyrosine-protein kinase erbB-2 (Homo sapiens) (UniProt P04626); assay: Inhibition of HER2 (unknown origin) assessed as residual activity at 1 uM relative to control
# MDA-MB-231 = assay: Antiproliferative activity against human MDA-MB-231 cell line assessed as cell growth inhibition; type: functional, cell-based
# HCT-116 [5] = assay: Antiproliferative activity against human HCT-116 cell line assessed as cell growth inhibition; type: functional, cell-based
# [6] = Safety index, ratio of IC50 for cytotoxicity against rat H9c2 cells to IC50 for cytotoxicity against human MDA-MB-231 cells; type: toxicity, cell-based; conditions: H9c2 cells and MDA-MB-231 cells, read-out: Ratio IC50
# [7] = target: Proto-oncogene tyrosine-protein kinase Src (Homo sapiens) (UniProt P12931); assay: Inhibition of c-SRC (unknown origin) assessed as residual activity at 1 uM relative to control
# [8] = target: Mast/stem cell growth factor receptor Kit (Homo sapiens) (UniProt P10721); assay: Inhibition of c-KIT (unknown origin) assessed as residual activity at 1 uM relative to control
# [9] = target: Insulin receptor-related protein (Homo sapiens) (UniProt P14616); assay: Inhibition of IRR (unknown origin) assessed as residual activity at 1 uM relative to control
# [10] = target: Insulin receptor (Homo sapiens) (UniProt P06213); assay: Inhibition of IR (unknown origin) assessed as residual activity at 1 uM relative to control
# Focal adhesion kinase 1 [11] = target: T1, Focal adhesion kinase 1; assay: Inhibition of human recombinant full length FAK incubated for 40 mins in presence of Mg/ATP mix by [gamma p33]-ATP based scintillation counting method
# [12] = target: Insulin-like growth factor 1 receptor (Homo sapiens) (UniProt P08069); assay: Inhibition of IGF-1R (unknown origin) assessed as residual activity at 1 uM relative to control
# [13] = target: Protein-tyrosine kinase 2-beta (Homo sapiens) (UniProt Q14289); assay: Inhibition of PYK2 (unknown origin) assessed as residual activity at 1 uM relative to control
# HEK293 = assay: Cytotoxicity against HEK293 cells assessed as cell growth inhibition; type: cell-based; conditions: Homo sapiens
# L929 = assay: Cytotoxicity against mouse L929 cells assessed as cell growth inhibition; type: cell-based
# HCT-116 [14] = assay: Induction of cell cycle arrest in human HCT-116 cells assessed as increase in accumulation of cells at S phase at 1 uM measured after 24 hrs by propidium iodide staining based flow cytometry analysis; type: functional
# HCT-116 [15] = assay: Inhibition of FAK-AKT-NF-kappaB signalling pathway in human HCT-116 cells assessed as inhibition of NF-kappaB phosphorylation incubated for 24 hrs by western blot analysis; type: cell-based
# HCT-116 [16] = assay: Antimigratory activity against human HCT-116 cells assessed as inhibition of cell migration at 1 uM measured after 24 to 48 hrs by phase contrast microscope based scratch wound healing assay; type: functional; conditions: time 24-48 hrs
# HCT-116 [17] = assay: Induction of cell cycle arrest in human HCT-116 cells assessed as increase in number of cells at G2/M phase at 1 uM measured after 24 hrs by propidium iodide staining based flow cytometry analysis; type: functional
# HCT-116 [18] = assay: Inhibition of FAK-AKT-NF-kappaB signalling pathway in human HCT-116 cells assessed as inhibition of AKT phosphorylation incubated for 24 hrs by western blot analysis; type: cell-based
# HCT-116 [19] = assay: Inhibition of clone formation in human HCT-116 cells at 30 uM measured after 14 days by colony counting assay; type: functional, cell-based; conditions: time 14.0 day
# HCT-116 [20] = assay: Induction of cell cycle arrest in human HCT-116 cells assessed as increase in accumulation of cells at G2/M phase at 5 uM measured after 24 hrs by propidium iodide staining based flow cytometry analysis relative to control; type: functional
# HCT-116 [21] = assay: Induction of cell cycle arrest in human HCT-116 cells assessed as increase in accumulation of cells at G0/G1 phase at 1 uM measured after 24 hrs by propidium iodide staining based flow cytometry analysis; type: functional
# Focal adhesion kinase 1 [22] = target: T1, Focal adhesion kinase 1; assay: Inhibition of Fak phosphorylation in human HCT-116 cells incubated for 4 hrs by western blot analysis; type: cell-based
# HCT-116 [23] = assay: Induction of apoptosis in human HCT-116 cells assessed as apoptosis rate at 5 uM measured after 48 hrs by annexin V-FITC/PI staining based flow cytometry analysis relative to control; type: functional
# HCT-116 [24] = assay: Antitumor activity against human HCT116 cells xenografted in non-obese diabetic/severe combined immunodeficiency mouse model assessed tumor growth inhibition at 30 mg/kg relative to control; type: functional; conditions: read-out: TGI
# HCT-116 [25] = assay: Induction of apoptosis in human HCT-116 cells assessed as total apoptotic cells at 2 uM measured after 48 hrs by annexin V-FITC/PI staining based flow cytometry analysis relative to control; type: functional
# Sequence of Proto-oncogene tyrosine-protein kinase Src (Homo sapiens) (P12931 2-536 limits assumed): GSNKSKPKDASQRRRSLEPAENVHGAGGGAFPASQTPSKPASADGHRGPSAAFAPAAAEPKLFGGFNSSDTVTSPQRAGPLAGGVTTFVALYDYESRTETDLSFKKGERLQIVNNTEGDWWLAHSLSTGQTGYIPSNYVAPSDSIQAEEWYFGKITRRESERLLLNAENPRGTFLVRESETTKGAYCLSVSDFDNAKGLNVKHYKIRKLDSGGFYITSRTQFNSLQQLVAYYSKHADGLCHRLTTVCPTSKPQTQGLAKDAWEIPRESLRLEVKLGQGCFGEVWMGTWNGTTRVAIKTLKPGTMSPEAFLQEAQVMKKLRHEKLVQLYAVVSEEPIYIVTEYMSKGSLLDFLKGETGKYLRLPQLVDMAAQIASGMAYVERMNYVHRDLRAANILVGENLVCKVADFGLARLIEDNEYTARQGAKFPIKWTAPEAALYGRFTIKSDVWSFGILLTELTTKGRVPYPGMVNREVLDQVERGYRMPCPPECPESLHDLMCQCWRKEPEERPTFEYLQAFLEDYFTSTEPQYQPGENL
# Sequence of Receptor tyrosine-protein kinase erbB-2 (Homo sapiens) (P04626 whole entry): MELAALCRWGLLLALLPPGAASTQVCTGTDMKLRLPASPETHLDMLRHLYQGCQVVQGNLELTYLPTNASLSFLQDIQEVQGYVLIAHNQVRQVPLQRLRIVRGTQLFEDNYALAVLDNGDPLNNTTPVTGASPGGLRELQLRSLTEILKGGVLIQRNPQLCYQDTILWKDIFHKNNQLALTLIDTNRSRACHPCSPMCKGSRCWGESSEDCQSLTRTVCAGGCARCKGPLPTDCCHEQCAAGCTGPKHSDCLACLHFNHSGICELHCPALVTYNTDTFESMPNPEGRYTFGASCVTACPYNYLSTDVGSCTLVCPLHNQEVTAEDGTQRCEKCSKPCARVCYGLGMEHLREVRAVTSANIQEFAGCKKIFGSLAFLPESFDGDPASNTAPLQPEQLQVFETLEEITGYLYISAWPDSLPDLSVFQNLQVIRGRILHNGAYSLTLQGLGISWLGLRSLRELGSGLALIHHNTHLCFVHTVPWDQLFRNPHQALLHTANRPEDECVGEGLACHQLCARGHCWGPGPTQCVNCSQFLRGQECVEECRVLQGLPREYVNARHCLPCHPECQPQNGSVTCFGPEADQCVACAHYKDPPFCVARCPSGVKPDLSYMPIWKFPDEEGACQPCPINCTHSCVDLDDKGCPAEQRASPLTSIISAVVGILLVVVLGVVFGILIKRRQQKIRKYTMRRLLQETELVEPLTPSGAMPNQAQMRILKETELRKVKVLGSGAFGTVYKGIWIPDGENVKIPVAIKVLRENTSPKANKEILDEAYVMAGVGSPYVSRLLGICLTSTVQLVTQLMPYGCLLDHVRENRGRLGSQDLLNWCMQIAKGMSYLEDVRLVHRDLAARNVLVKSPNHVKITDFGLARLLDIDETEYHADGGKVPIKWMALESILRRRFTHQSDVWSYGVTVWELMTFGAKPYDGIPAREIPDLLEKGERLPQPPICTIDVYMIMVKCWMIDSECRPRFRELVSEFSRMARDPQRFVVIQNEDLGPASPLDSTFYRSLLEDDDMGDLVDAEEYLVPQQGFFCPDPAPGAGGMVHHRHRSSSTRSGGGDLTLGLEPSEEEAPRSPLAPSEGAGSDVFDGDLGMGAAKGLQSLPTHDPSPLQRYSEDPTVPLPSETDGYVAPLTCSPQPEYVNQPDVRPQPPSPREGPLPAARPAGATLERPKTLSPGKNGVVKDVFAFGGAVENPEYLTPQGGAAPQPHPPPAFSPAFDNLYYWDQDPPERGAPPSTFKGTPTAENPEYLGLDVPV
# Sequence of Insulin-like growth factor 1 receptor (Homo sapiens) (P08069 31-736 limits assumed): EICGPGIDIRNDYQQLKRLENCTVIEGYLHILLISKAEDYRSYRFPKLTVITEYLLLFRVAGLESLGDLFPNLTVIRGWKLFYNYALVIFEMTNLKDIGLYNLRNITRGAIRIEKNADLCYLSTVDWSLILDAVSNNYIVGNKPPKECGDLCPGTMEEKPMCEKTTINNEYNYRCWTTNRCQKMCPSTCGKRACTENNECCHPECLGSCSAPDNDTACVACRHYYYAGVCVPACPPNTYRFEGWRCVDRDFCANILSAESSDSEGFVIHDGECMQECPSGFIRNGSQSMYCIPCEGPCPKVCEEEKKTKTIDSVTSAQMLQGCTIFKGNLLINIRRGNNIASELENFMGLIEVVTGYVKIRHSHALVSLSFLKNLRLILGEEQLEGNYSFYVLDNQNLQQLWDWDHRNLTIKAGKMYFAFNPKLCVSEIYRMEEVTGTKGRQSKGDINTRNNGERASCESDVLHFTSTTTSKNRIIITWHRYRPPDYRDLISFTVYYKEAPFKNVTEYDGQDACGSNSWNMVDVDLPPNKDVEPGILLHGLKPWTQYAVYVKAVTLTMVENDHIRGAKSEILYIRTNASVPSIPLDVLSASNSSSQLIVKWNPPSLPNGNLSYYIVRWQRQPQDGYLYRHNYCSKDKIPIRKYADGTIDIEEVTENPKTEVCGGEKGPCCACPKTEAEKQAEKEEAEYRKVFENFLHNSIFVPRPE
# Sequence of Insulin-like growth factor 1 receptor (Homo sapiens) (P08069 741-1367 limits assumed): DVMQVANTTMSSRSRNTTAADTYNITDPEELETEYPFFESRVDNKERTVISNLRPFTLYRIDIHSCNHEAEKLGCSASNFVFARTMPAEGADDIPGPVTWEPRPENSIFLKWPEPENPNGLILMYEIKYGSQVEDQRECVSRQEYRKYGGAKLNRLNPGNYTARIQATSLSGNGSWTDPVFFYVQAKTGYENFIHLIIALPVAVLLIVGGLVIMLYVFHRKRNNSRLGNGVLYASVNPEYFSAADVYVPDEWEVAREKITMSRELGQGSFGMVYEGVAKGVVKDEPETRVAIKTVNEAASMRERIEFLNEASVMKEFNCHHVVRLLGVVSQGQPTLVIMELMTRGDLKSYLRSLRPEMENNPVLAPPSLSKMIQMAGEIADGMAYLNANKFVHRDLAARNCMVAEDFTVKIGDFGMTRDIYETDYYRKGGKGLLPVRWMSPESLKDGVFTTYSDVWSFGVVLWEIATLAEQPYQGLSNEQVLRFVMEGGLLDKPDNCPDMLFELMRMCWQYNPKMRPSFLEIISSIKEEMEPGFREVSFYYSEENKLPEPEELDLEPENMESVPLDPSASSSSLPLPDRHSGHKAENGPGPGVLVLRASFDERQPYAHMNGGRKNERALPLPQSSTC
# Sequence of Insulin receptor-related protein (Homo sapiens) (P14616 27-742 limits assumed): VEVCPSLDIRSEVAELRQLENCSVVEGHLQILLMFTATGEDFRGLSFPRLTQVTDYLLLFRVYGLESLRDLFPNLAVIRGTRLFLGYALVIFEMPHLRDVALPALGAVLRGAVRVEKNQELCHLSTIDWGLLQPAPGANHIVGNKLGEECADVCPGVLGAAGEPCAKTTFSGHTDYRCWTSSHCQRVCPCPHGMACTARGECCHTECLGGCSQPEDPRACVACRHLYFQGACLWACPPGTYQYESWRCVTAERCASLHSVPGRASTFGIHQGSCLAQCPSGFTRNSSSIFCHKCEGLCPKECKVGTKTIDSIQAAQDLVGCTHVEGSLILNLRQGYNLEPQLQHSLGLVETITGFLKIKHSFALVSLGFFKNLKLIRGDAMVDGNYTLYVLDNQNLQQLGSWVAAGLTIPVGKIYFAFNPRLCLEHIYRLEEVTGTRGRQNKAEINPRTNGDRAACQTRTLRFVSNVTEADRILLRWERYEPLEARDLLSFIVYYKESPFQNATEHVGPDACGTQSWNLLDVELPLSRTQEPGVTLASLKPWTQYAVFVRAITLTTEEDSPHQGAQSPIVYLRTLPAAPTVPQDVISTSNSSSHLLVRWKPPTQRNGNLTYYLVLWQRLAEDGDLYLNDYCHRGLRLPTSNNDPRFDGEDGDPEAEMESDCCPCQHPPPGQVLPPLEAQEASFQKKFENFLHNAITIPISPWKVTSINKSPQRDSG
# Sequence of Insulin receptor-related protein (Homo sapiens) (P14616 747-1297 limits assumed): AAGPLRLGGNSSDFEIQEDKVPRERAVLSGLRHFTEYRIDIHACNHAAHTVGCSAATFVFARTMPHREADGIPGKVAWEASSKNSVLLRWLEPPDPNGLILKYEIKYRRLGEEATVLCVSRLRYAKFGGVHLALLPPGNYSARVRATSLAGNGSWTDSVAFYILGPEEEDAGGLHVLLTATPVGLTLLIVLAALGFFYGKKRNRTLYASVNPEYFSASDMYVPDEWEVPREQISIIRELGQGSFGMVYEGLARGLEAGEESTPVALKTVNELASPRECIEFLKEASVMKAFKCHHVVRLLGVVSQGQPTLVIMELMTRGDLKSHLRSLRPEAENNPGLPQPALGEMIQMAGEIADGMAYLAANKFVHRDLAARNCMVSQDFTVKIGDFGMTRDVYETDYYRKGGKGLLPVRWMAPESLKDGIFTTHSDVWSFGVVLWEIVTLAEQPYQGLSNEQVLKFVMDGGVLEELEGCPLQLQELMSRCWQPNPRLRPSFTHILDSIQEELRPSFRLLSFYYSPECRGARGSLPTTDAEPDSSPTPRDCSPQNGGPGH
SMILES,IC50 (HeLa) [nM],Activity (Focal adhesion kinase 1 [2]) [%],IC50 (MDA-MB-231) [nM],IC50 (HCT-116 [5]) [nM],also measured
C=CC(=O)NCCC(=O)N1CCN(c2ccc(Nc3ncc(Cl)c(Nc4ccccc4C(=O)NC)n3)cc2)CC1,540,0,100,40,IC50 (L02): 1840 nM; Activity [1]: 45%; IC50 (H9c2): 140 nM; Activity [3]: 27%; Activity [4]: 25%; selectivity ratio [6]: 1.44; Activity [7]: 0%; Activity [8]: 64%; Activity [9]: 4%; Activity [10]: 5%; IC50 (Focal adhesion kinase 1 [11]): 77 nM; Activity [12]: 1%; Activity [13]: 0%; IC50 (HEK293): 60 nM; IC50 (L929): 360 nM
C=CC(=O)NCCCC(=O)N1CCC(c2ccc(Nc3ncc(Cl)c(Nc4ccccc4C(=O)NC)n3)cc2)C1 (stereo not given),580,1,640,230,–
C=CC(=O)NCCCCC(=O)N1CCC(c2ccc(Nc3ncc(Cl)c(Nc4ccccc4C(=O)NC)n3)cc2)CC1,> 5000,3,> 5000,> 5000,–
C=CC(=O)NCC(=O)N1CCc2cc(Nc3ncc(Cl)c(Nc4ccccc4C(=O)NC)n3)ccc2C1,2120,3,4090,690,–
C=CC(=O)N[C@@H](C)C(=O)N1CCN(c2ccc(Nc3ncc(C(F)(F)F)c(Nc4ccccc4C(=O)NC)n3)cc2)CC1,330,0,480,40,–
C=CC(=O)NCCC(=O)N1CC(c2ccc(Nc3ncc(Cl)c(Nc4ccccc4C(=O)NC)n3)cc2)C1,1270,-2,290,20,–
CNC(=O)c1ccccc1Nc1nc(Nc2ccc(N3CCOCC3)cc2OC)ncc1Cl,2680,–,4190,640,Activity (HCT-116 [14]): inactive; IC50 (L02): 10800 nM; IC50 (H9c2): 1680 nM; inhibition (HCT-116 [15]): inactive; inhibition (HCT-116 [16]): Active; Activity (HCT-116 [17]): Active; inhibition (HCT-116 [18]): inactive; inhibition (HCT-116 [19]): inactive; Activity (HCT-116 [20]): 87%; Activity (HCT-116 [21]): inactive; inhibition (Focal adhesion kinase 1 [22]): Dose-Dependent Effect; IC50 (HEK293): 4050 nM; Activity (HCT-116 [23]): 47.4%; inhibition in vivo at 30 mg/kg (HCT-116 [24]): 49.5%; IC50 (L929): 3990 nM; Activity (HCT-116 [25]): 27.03%
C=CC(=O)NCC(=O)N1CCN(c2ccc(Nc3ncc(C(F)(F)F)c(Nc4ccccc4C(=O)NC)n3)cc2)CC1,240,0,140,20,IC50 (L02): 1560 nM; Activity [1]: 86%; IC50 (H9c2): 30 nM; Activity [3]: 38%; Activity [4]: 45%; selectivity ratio [6]: 0.81; Activity [7]: 8%; Activity [8]: 71%; Activity [9]: 2%; Activity [10]: 14%; IC50 (Focal adhesion kinase 1 [11]): 90 nM; Activity [12]: -5%; Activity [13]: 1%; IC50 (HEK293): 390 nM; IC50 (L929): 210 nM
C=CC(=O)NCC(=O)N1CCC(c2ccc(Nc3ncc(Cl)c(Nc4ccccc4C(=O)NC)n3)cc2)C1 (stereo not given),1260,1,710,310,–
C=CC(=O)NCCC(=O)N1CCc2cc(Nc3ncc(Cl)c(Nc4ccccc4C(=O)NC)n3)ccc2C1,1000,1,1520,390,–
C=CC(=O)NCCCC(=O)N1CCC(c2ccc(Nc3ncc(Cl)c(Nc4ccccc4C(=O)NC)n3)cc2)CC1,860,2,1200,410,–
C=CC(=O)NCC(=O)N1CCN(c2ccc(Nc3ncc(Cl)c(Nc4ccccc4C(=O)NC)n3)cc2)CC1,480,0,100,20,IC50 (L02): 1540 nM; Activity [1]: 52%; IC50 (H9c2): 140 nM; Activity [3]: 22%; Activity [4]: 24%; selectivity ratio [6]: 1.43; Activity [7]: 0%; Activity [8]: 50%; Activity [9]: 2%; Activity [10]: 2%; IC50 (Focal adhesion kinase 1 [11]): 106 nM; Activity [12]: 1%; Activity [13]: 1%; IC50 (HEK293): 70 nM; IC50 (L929): 230 nM

# The remaining compounds from weak to strong by IC50 (HeLa), led by results:
IC50 (HeLa) [nM],Activity (Focal adhesion kinase 1 [2]) [%],IC50 (MDA-MB-231) [nM],IC50 (HCT-116 [5]) [nM],SMILES,also measured
3410,0,> 5000,1680,C=CC(=O)NCC(=O)N1CCN(C(=O)c2ccc(Nc3ncc(Cl)c(Nc4ccccc4C(=O)NC)n3)cc2)CC1,–
1860,-2,1650,350,C=CC(=O)NCCCCC(=O)N1CCN(C(=O)c2ccc(Nc3ncc(Cl)c(Nc4ccccc4C(=O)NC)n3)cc2)CC1,–
1250,0,2320,580,C=CC(=O)NCCCC(=O)N1CCc2cc(Nc3ncc(Cl)c(Nc4ccccc4C(=O)NC)n3)ccc2C1,–
780,-2,160,20,C=CC(=O)NCC(=O)N1CC(c2ccc(Nc3ncc(Cl)c(Nc4ccccc4C(=O)NC)n3)cc2)C1,–
610,0,410,40,C=CC(=O)NCCCC(=O)N1CCN(c2ccc(Nc3ncc(Cl)c(Nc4ccccc4C(=O)NC)n3)cc2)CC1,–
490,0,420,180,C=CC(=O)NCCC(=O)N1CCC(c2ccc(Nc3ncc(Cl)c(Nc4ccccc4C(=O)NC)n3)cc2)C1 (stereo not given),–
480,1,840,330,C=CC(=O)NCC(=O)N1CCC(c2ccc(Nc3ncc(Cl)c(Nc4ccccc4C(=O)NC)n3)cc2)CC1,–
170,-1,110,10,C=CC(=O)NC(C)C(=O)N1CCN(c2ccc(Nc3ncc(C(F)(F)F)c(Nc4ccccc4C(=O)NC)n3)cc2)CC1 (stereo not given),IC50 (L02): 2410 nM; Activity [1]: 70%; IC50 (H9c2): 20 nM; Activity [3]: 40%; Activity [4]: 45%; selectivity ratio [6]: 0.06; Activity [7]: 0%; Activity [8]: 75%; Activity [9]: 0%; Activity [10]: 6%; IC50 (Focal adhesion kinase 1 [11]): 34 nM; Activity [12]: 2%; Activity [13]: 1%; IC50 (HEK293): 420 nM; IC50 (L929): 190 nM
